These results are taken from a melting point compilation (Tetko et al.; mined from patent text by program, amines drawn as free bases though some values may be those of a salt).

The term melting point denotes the temperature, or range, at which the solid turns liquid. The molecule `CNC(=S)Nc1cc(C)ccc1N1CCOCC1` gave a melting point of 107 °C.

`O[C@@H]1CCc2ccc(F)cc2C1` gave a melting point of 59 to 61 °C.

`COc1ccc2c(Cc3c(Cl)cncc3Cl)nncc2c1C=CCCCc1ccccc1` displayed a melting point of 121 to 123 °C. Regarding `O=c1cc(C(F)(F)F)nc[nH]1`, the melting point was 157 °C. With `CCOC(=O)c1ccc(CCC=O)cc1` the figure was 109 °C; with `CN1C(=O)C(C(=O)Nc2ccccc2)c2cc3ccccc3cc2S1(=O)=O` (stereo not given), 188 to 190 °C; with `CN(Cc1cc2c3c(c1)c(=O)c(C(=O)NCc1ccc(F)cc1)cn3CC(=O)N2C)C[C@@H](O)c1nccs1`, 156 to 158 °C. With `CC(C)OC1(C(=O)O)C=C(Cl)C=C(Cl)C1` (stereo not given) the figure was 140 to 141 °C; with `Cc1ccnc(NCCSCc2nc[nH]c2C)c1C(=O)O`, 143 °C; with `c1csc(-c2nc(COc3ccc(CCCn4ccnc4)cc3)cs2)c1`, 76 to 77 °C. For `CC1(C)CCC(C)(C)c2cc(C=O)c(F)cc21`, the melting point lay within 119 to 120 °C. For `Nc1nc(-c2ccc(CCCCN3CCN(c4cccc(C(F)(F)F)c4)CC3)cc2)cs1`, the melting point fell in the range of 174 to 179 °C. With `CCCCc1oc2ccccc2c1C(=O)Nc1ccc2c(Br)c(O)ccc2c1` the figure was 195 to 197 °C; with `CN(C)S(=O)(=O)c1cc([N+](=O)[O-])ccc1C(=O)O`, 160 to 163 °C.

`CCN(CC)CCN1C(=O)Nc2cnccc2C1c1ccccc1` (stereo not given) showed a melting point of 138 to 140 °C. The same measure for `CC(C)(C)C(O)c1cncnc1` (stereo not given): 94 to 96 °C; for `COc1cc(OC)c2c(=O)cc(-c3ccccc3)oc2c1`: 147 to 149 °C. Consider `CCOC(=O)Cc1nn2c(-c3ccc(OC)cc3)nnc2c2ccccc12`, for which the melting point was in the range of 201 to 202 °C.

`CCCCn1c(=O)c2c(ncn2S(=O)(=O)c2cc(C)c(Cl)cc2C)n(CCCC)c1=O` yielded a melting point of 138 to 140 °C. The same measure for `Oc1cc2c(cc1O)OCC(c1ccc3c(c1)OCO3)C2` (stereo not given): 163 to 164 °C; for `CCCc1cc2c(cc1CC#N)OCO2`: 66 to 67 °C; for `OCC1COC2(CC(c3ccccc3)SC(c3ccccc3)C2)O1` (stereo not given): 116 to 118 °C. With `CN1C(=O)CN(C2=CC(C)(C)Oc3ccc(C#N)cc32)C1=O` the figure was 188 to 190 °C. The same measure for `O=C1c2ccccc2CN1c1ccc(CCN2CCN(c3nsc4ccccc34)CC2)cc1`: 176 °C; for `COc1cc(OC)c(NC(=O)[C@H](Cc2ccc(OCc3ccccc3)cc2)NC(=O)OC(C)(C)C)c(OC)c1`: 89 to 95 °C.

With `O=C1CCOc2ccc(Oc3ccccc3)cc21`, the melting point was 58 to 60 °C. `COC(=O)c1cc(Cl)cc(OC)c1O`: the melting point came out at 105 °C. With `CCOC(=O)C1C(=O)N(CC)c2cc3cc(C)oc3cc21` (stereo not given) the figure was 82 to 90 °C; with `CC(O)c1cc(Cl)cc(Cl)c1O` (stereo not given), 70 °C; with `CCn1c(C)nc2cc(S(=O)(=O)c3cccc4cnccc34)c([N+](=O)[O-])cc21`, 245 to 250 °C. With `COc1cc(N)ccc1NC1=CC(=O)C(N)=CC1=O` the figure was 267 °C; with `CNC(=O)c1cccc(NC(=O)Cc2cccc(Br)c2)c1`, 176 to 178 °C; with `CC(=O)Nc1cc(Oc2ccc3c(C(=O)Nc4cc(-n5cnc(C)c5)cc(C(F)(F)F)c4)cccc3c2)ncn1`, 291 to 293 °C.

As for `CC(C)(C)OC(=O)N[C@H](C(=O)N1CCC[C@H]1C(=O)OCc1ccccc1)C(C)(C)C`, the melting point stood at 174 °C. The same measure for `COc1cc(OCC(=O)N[C@@H]2CCN(Cc3ccccc3)C2)ccc1C=NNC(=O)c1ccc(O)c(N)c1`: 157 to 160 °C; for `c1ccc(NC2CCCN2Cc2c[nH]c3ccccc23)cc1` (stereo not given): 150 to 151 °C. The same measure for `COc1ccc(S(=O)(=O)N2CCc3cccc(-c4ccc(F)cc4)c32)cc1`: 178 to 179 °C; for `NC(=O)NC1(C(=O)O)CCCc2ncc(Cl)cc21` (stereo not given): 188 to 190 °C; for `CCOC(=O)Cn1c(=O)c2cc(CBr)ccc2n(Cc2ccc(Cl)c(Cl)c2)c1=O`: 128 to 129 °C. Turning to `CCCCc1nc(C(C)(C)O)c(C(N)=O)n1Cc1ccc(-c2ccccc2C(=O)O)cc1`, the melting point is 130 to 138 °C. In the case of `Cc1cccc(C)c1NCCCN1C(=O)c2ccccc2C1=O`, the melting point lay in the range of 97 to 98 °C. The same measure for `Nc1nc2ccc(S(=O)(=O)n3c(CCC(=O)O)cc4nc(Cl)ccc43)cc2s1`: above 260 °C; for `CS(=O)(=O)c1ccc(C(=O)c2cc(-c3ccc(S(C)(=O)=O)cc3)c(N3CCOCC3)s2)cc1`: 190 °C; for `COC(=O)c1nc2nccc(S)n2n1`: 206 °C.

With `O=C(O)Cc1ccccc1OCCCCc1cc(-c2ccc(C(F)(F)F)cc2)no1`, the melting point was in the range of 122 to 123 °C.

Molecule `CN(C)CCCN=C1CC(c2ccc(Cl)cc2Cl)Cc2c1c(=O)c1cc(Cl)ccc1n2O` (stereo not given) had a melting point of 172 to 174 °C. In turn, `CCCn1c(NC(=O)c2ccccc2)nc2ccccc2c1=O` showed a melting point of 133 to 135 °C. In the case of `CCNC(=S)c1c(Cl)cccc1[Si](C)(C)C`, the melting point lay within 158 to 159 °C. With `CCn1c(C(O)(C(C)C)C(C)C)nc(-c2ccncc2)c1-c1ccc(Cl)cc1` the figure was 221 to 223 °C; with `CCc1cn(C2CC(O)C(CS(=O)(=O)Cc3ccccc3)O2)c(=O)[nH]c1=O` (stereo not given), 232 to 233 °C; with `CC(C)(C)[Si](OCC1OC(n2ccc(N)nc2=S)C(O)(CC[Si](C)(C)C)C1O)(c1ccccc1)c1ccccc1` (stereo not given), 126 °C. In the case of `COc1ccc(S(=O)(=O)N(Cc2ccccc2)C(C)C(=O)NO)cc1` (stereo not given), the melting point lay within 127 to 129 °C.

With `CCCCCCCCCCCCCCOc1ccc(C(=O)N(CC(=O)O)CC(=O)O)cc1OCCCCCCCCCCCCCC`, the melting point is 84 to 87 °C. With `C[C@H]1OC(=O)N[C@@H]1C(=O)NCCO[N+](=O)[O-]` the figure was 81.5 to 82.5 °C.

`COc1cc(-c2csnc2C)cc2oc(=O)c(C)c(C)c12` came in with a melting point of 163 to 165 °C. `O=C(NC1CCCC1)c1ccc(-c2ccc3nnn(Cc4ccc5ncccc5c4)c3n2)cc1F` showed a melting point of 166 to 168 °C. The same measure for `CCOC(=O)CS(=O)(=O)C=C1SC=CS1`: 134 to 136 °C; for `Nc1scc2c1C(=O)c1c(Cl)cccc1-2`: 183 to 185 °C. As to `Cc1sc(N)nc1-c1cccc2ccccc12`, the melting point lay in the range of 194 to 195 °C. The same measure for `CC12CCC3C(CCC4CC(O)CCC43C)C1CCC2C#N` (stereo not given): 156 to 158 °C; for `ON=C1CCC(O)(c2ccccc2Cc2ccccc2)CC1` (stereo not given): 137 to 138 °C; for `CC(C)(SCc1cc2cc(C(F)(F)F)ccc2n1S(=O)(=O)c1ccccc1)C(=O)O`: 90 °C. With `Oc1cc2ccsc2c(Cl)c1Cl` the figure was 97 to 98 °C. `O=[N+]([O-])c1cc2c(cc1Oc1ccccc1)CCC2` came in with a melting point of 41 °C. Molecule `CCCCCC(C)NC1=NS(=O)(=O)c2sc(Cl)cc2N1` (stereo not given) showed a melting point of 158 to 162 °C.
